According to patent US20180318325A1, “ANTIBODIES FOR TARGETING CANCER STEM CELLS AND TREATING AGGRESSIVE CANCERS” (GlycoMimetics, Inc., priority 2015, published 2018):

Experiments:
[1] = tested on: MM1S^HECA452; assay: survival of SCID beige mice transplanted with MM1S^HECA452 cells; type: in vivo; conditions: MM1S^HECA452 engrafted female SCID beige mice; FIG. 4
Procedure: (§1) The significance of these in vitro findings were studied in vivo. Female SCID beige mice were injected i.v. with either MM1S^par or MM1S^HECA452 (5×10^5 cells, n=8/group) and followed for survival (see, e.g., FIG. 2). In separate cohorts, the effect of treatment with saline control, GMI-1271, bortezomib (BTZ) or a combination of both was determined in mice transplanted with either MM1S^par or MM1S^HECA452 cells.

[2] = tested on: MM cells; conditions: murine transplant models; Natoni et al., Blood, 2014; cited from earlier work
[3] = molecular target: T1, E-selectin (Homo sapiens, UniProt P16581); conditions: MM1S cells that bind to HECA-452; previously reported; cited from earlier work
T1 sequence (P16581 22-610): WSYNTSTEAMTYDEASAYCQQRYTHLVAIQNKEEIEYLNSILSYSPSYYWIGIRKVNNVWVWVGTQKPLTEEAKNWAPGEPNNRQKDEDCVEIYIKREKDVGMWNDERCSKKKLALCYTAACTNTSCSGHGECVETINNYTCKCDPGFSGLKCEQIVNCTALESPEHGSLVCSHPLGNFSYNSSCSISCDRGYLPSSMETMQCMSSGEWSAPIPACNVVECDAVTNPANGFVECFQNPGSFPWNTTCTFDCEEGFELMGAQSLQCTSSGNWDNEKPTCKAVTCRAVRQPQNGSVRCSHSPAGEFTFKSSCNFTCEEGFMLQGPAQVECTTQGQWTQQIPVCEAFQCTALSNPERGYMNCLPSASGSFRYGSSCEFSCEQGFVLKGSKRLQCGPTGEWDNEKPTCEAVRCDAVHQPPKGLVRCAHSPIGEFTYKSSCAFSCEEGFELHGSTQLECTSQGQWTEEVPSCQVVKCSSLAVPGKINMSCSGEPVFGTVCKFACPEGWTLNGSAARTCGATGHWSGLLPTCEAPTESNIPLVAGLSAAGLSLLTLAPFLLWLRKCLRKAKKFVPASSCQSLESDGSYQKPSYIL

[4] = tested on: MM1S^par; assay: survival of SCID beige mice transplanted with MM1S^par cells; type: in vivo; conditions: MM1S^par engrafted female SCID beige mice; FIG. 3
Procedure: as §1

[5] = tested on: MM1S^HECA452; assay: mobilization of human CD138+ MM cells into the bloodstream of mice with MM1S^HECA452 tumors; type: in vivo
Procedure: The number of human CD138+ MM cells was mobilized into the bloodstream in mice with MM1S^HECA452 tumors within 60 min following a single injection of GMI-1271 (see, e.g., FIG. 5) and persisted for at least 24 hours (2.37% v. 0.03%, p<0.001). This effect was consistent with GMI-1271 disrupting the tumor microenvironment and mobilizing MM1S^HECA-452 cells from the BM niche into the peripheral blood.

[6] = molecular target: T1, E-selectin; assay: rolling on E-selectin under shear stress; type: cell-based; conditions: both HECA-452 enriched and parental MM cell lines
From the text: (§2) The derived cell lines could be passaged in vitro and were stable for enriched E-selectin ligand expression identified by antibody HECA-452.

[7] = molecular target: T1, E-selectin; assay: static adhesion assay on E-selectin; type: cell-based; conditions: GMI-1271 included during culture conditions; MM1S^HECA452 cells
From the text: as §2

[8] = following a single injection of GMI-1271

For CC(C)C[C@H](NC(=O)[C@H](Cc1ccccc1)NC(=O)c1cnccn1)B(O)O [BTZ, bortezomib], the “survival / anti-myeloma activity” value [1] was “marked resistance to BTZ treatment”.

For CC[C@H]1C[C@@H](C(=O)NCCNC(=O)CCOCCOCCOCCOCCOCCOCCOCCOCCOCCOCCOCCOC)C[C@@H](O[C@@H]2O[C@H](CO)[C@H](O)[C@H](O[C@@H](CC3CCCCC3)C(=O)[O-])[C@H]2NC(C)=O)[C@@H]1O[C@@H]1O[C@@H](C)[C@@H](O)[C@@H](O)[C@@H]1O.[Na+] [GMI-1271], the “effect on activity of bortezomib in vivo” value [2] is given as “enhance the activity of bortezomib”, the “rolling of MM1S cells on E-selectin” value [3] is given as “blocked the rolling” and the survival [4] is given as “no impact on survival”. For the same compound, the “human CD138+ MM cells in the bloodstream” value ([5]; after a single injection of GMI-1271, 24 hours, v. 0.03%, p<0.001) was 2.37%, the persistence of mobilization [5, 8] was “at least 24 hours” and the “time to mobilization of CD138+ MM cells into the bloodstream” value [5, 8] was ≤ 60 min. For the same compound, the “rolling on E-selectin” value [6] was “profoundly inhibited rolling” and the “adhesion of MM1S^HECA452 to E-selectin” value [7] was “marked reduction in adhesion”.
